Laboratory results taken from US20240360139A1, “BLOOD BRAIN BARRIER PENETRATING SELECTIVE INHIBITORS OF ROCK2 PROTEIN KINASES AND USES THEREOF” (GENOSCO Inc., priority 2023, published 2024).

Assays:
[1] = molecular target: T1, Recombinant ROCK1 (amino acids 1-477) (Homo sapiens, UniProt Q13464); experiment: ROCK inhibition assay, LANCE Ultra TR-FRET (ROCK1); format: biochemical; settings: 1 mM of ATP
T1 construct: Recombinant ROCK1 (amino acids 1-477)
Procedure: (§1) Kinase IC50 was determined through an in vitro assay based on LANCE Ultra TR-FRET (Time-Resolved Fluorescence Resonance Energy Transfer) homogeneous technologies method 5 (Perkin Elmer). Recombinant ROCK1 (amino acids 1-477) and ROCK2 (amino acids 5-554) proteins were purchased from Carna Biosciences and SignalChem. Compound activities were measured by Envision and IC50s were calculated. The assays were performed in white LUMITRAC™ 200 96 well half-area microplates from Greiner Bio-One. The kinase reaction buffer consisted of 50 mM HEPES pH 7.5, 1 mM EGTA, 10 mM MgCl2, 2 mM DTT and 0.01% 10 Tween-20. Kinases were incubated with 50 nM (ULight-CREBtide) substrate in the presence of 1 mM (ROCK1) or 1 mM (ROCK2) of ATP. The kinase reaction was carried out for 1 hour before addition of a stopping buffer to a final of 10 mM EDTA and 0.6 nM of LANCE Ultra Europium anti-phospho-CREB (Ser133) antibody (PerkinElmer TRF0200) in LANCE detection buffer. All assay incubations were performed at room temperature, and the microplates were sealed with polyester film during that time. The reaction was incubated for 1 hour, and the signal was read in Envision in TR-FRET mode (excitation at 320 nm and emission at 615/665 nm).
(§2) As used herein, a way to describe potency of inhibitory activity (nM) is a value of inhibitory activity at 50% (IC50).

[2] = molecular target: T2, Recombinant ROCK2 (amino acids 5-554) (Homo sapiens, UniProt O75116); experiment: ROCK inhibition assay, LANCE Ultra TR-FRET (ROCK2); format: biochemical; settings: 1 mM of ATP
T2 construct: ROCK2 (amino acids 5-554)
T2 sequence (O75116 5-554): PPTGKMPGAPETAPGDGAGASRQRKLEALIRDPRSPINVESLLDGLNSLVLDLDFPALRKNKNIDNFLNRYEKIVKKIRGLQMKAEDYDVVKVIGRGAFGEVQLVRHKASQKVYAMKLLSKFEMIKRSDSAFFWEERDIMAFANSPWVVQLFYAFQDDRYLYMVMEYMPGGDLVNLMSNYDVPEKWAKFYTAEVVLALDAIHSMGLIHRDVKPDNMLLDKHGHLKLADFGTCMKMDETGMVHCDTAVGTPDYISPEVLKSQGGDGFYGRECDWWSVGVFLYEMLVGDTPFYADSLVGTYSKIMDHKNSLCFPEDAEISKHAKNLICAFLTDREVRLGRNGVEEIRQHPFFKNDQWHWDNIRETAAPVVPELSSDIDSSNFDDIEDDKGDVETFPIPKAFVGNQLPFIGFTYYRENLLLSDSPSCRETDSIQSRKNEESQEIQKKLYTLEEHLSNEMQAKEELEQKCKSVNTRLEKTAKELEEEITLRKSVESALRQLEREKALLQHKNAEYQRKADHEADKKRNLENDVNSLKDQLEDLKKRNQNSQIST
Procedure: as §1, §2

T1 sequence (Q13464 1-477): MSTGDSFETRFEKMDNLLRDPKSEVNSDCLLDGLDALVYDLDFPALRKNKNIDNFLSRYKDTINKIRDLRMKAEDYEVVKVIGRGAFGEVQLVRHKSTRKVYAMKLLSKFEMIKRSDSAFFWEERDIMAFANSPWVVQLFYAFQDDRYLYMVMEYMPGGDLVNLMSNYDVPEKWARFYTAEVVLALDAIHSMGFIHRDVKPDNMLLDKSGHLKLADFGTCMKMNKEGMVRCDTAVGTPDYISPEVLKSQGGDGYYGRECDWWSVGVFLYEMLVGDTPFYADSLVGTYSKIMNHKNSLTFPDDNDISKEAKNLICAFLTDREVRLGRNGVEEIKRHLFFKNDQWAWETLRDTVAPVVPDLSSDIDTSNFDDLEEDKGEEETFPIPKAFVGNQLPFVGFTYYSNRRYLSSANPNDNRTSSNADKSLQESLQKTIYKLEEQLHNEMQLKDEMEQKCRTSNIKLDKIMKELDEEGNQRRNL

| Structure (SMILES) | IC50 [1] | IC50 [2] |
| --- | --- | --- |
| CN(C)CCn1nc(C(=O)[C@@H]2COc3ccccc3O2)c2ccc(-c3cn[nH]c3)cc21 [Compound 5-44] | 201 to 500 nM | 21 to 200 nM |
| COc1n[nH]cc1-c1ccc2c(C(=O)C3COc4ccc(Cl)cc4C3)cn(C[C@H](C)N)c2c1 (some centres unmarked) [Compound 2-9] | 201 to 500 nM | < 20 nM |
| COc1[nH]ncc1-c1ccc2c(C(=O)C3COc4ccc(Cl)cc4C3)cn(CCN(C)C)c2c1 (centres unmarked) [Compound 5-28] | > 501 nM | < 20 nM |
| CNCCn1cc(C(=O)C2COc3ccc(Cl)cc3C2)c2ccc(-c3cn[nH]c3Cl)cc21 (centres unmarked) [Compound 3-9] | > 501 nM | 201 to 500 nM |
| CCN(C)CCn1cc(C(=O)C2COc3ccc(Cl)cc3C2)c2ccc(-c3cn[nH]c3OC)cc21 (centres unmarked) [Compound 3-11] | > 501 nM | 21 to 200 nM |
| CN(C)CCn1cc(C(=O)C2COc3ccc(Cl)cc3C2)c2ccc(-c3c[nH]nc3Cl)cc21 (centres unmarked) [Compound 1-17] | > 501 nM | 21 to 200 nM |
| CCN(C)CCn1cc(C(=O)C2COc3ccc(OC)cc3C2)c2ccc(-c3cn[nH]c3Cl)cc21 (centres unmarked) [Compound 3-25] | 201 to 500 nM | < 20 nM |
| O=C(c1cn(C[C@H]2CCN2)c2cc(-c3cn[nH]c3F)ccc12)C1COc2ccc(Cl)cc2C1 (some centres unmarked) [Compound 1-40] | > 501 nM | < 20 nM |
| CN(C)CCn1cc(C(=O)C2COc3ccc(Cl)cc3C2)c2ccc(-c3cn[nH]c3F)cc21 (centres unmarked) [Compound 1-24] | > 501 nM | 21 to 200 nM |
| COc1[nH]ncc1-c1ccc2c(C(=O)C3COc4ccc(Cl)cc4O3)cn(CCN(C)C)c2c1 (centres unmarked) [Compound 5-42] | > 501 nM | 201 to 500 nM |
| COc1ccc2c(c1)CC(C(=O)c1cn(C[C@H]3CCN3)c3cc(-c4cn[nH]c4OC)ccc13)CO2 (some centres unmarked) [Compound 1-42] | 201 to 500 nM | < 20 nM |
| CN(C)CCn1nc(C(=O)C2COc3ccccc3C2)c2ccc(-c3c[nH]nc3C(F)(F)F)cc21 (centres unmarked) [Compound 5-54] | > 501 nM | 201 to 500 nM |
| COc1ccc2c(c1)CC(C(=O)c1cn(C[C@@H]3CCN3C)c3cc(-c4cn[nH]c4Cl)ccc13)CO2 (some centres unmarked) [Compound 1-46] | > 501 nM | 21 to 200 nM |
| NC1(Cn2cc(C(=O)C3COc4ccc(F)cc4C3)c3ccc(-c4cn[nH]c4Cl)cc32)CC1 (centres unmarked) [Compound 4-4] | 21 to 200 nM | < 20 nM |
| CN(C)CCn1nc(C(=O)C2COc3ccc(F)cc3C2)c2ccc(-c3c[nH]nc3F)cc21 (centres unmarked) [Compound 5-55] | 201 to 500 nM | < 20 nM |
| COc1[nH]ncc1-c1ccc2c(C(=O)[C@@H]3COc4ccc(Cl)cc4C3)cn(CCN(C)C)c2c1 [Compound 5-30] | 201 to 500 nM | < 20 nM |
| COc1[nH]ncc1-c1ccc2c(C(=O)C3COc4ccc(Cl)cc4C3)cn(CC3CCN3)c2c1 (centres unmarked) [Compound 1-32] | > 501 nM | < 20 nM |
| COc1ccc2c(c1)CC(C(=O)c1cn(CC3(N)CC3)c3cc(-c4cn[nH]c4Cl)ccc13)CO2 (centres unmarked) [Compound 4-3] | 21 to 200 nM | < 20 nM |
| COc1n[nH]cc1-c1ccc2c(C(=O)[C@@H]3COc4ccc(Cl)cc4C3)nn(CCN(C)C)c2c1 [Compound 5-46] | 201 to 500 nM | < 20 nM |
| CCN1CC[C@@H]1Cn1cc(C(=O)C2COc3ccc(OC)cc3C2)c2ccc(-c3cn[nH]c3Cl)cc21 (some centres unmarked) [Compound 1-58] | > 501 nM | 21 to 200 nM |
| COc1n[nH]cc1-c1ccc2c(C(=O)C3COc4ccc(F)cc4C3)cn(CCCN(C)C)c2c1 (centres unmarked) [Compound 3-6] | > 501 nM | 21 to 200 nM |
| CCN(C)CCn1cc(C(=O)C2COc3ccc(OC)cc3C2)c2ccc(-c3cn[nH]c3F)cc21 (centres unmarked) [Compound 3-30] | 201 to 500 nM | 21 to 200 nM |
| CN1CC[C@@H]1Cn1cc(C(=O)C2COc3ccc(Cl)cc3C2)c2ccc(-c3cn[nH]c3F)cc21 (some centres unmarked) [Compound 1-57] | > 501 nM | 201 to 500 nM |
| COc1n[nH]cc1-c1ccc2c(C(=O)C3CCOc4ccc(F)cc4C3)nn(CCN(C)C)c2c1 (centres unmarked) [Compound 5-62] | > 501 nM | > 501 nM |
| COc1ccc2c(c1)CC(C(=O)c1cn(C[C@H]3CCN3C)c3cc(-c4cn[nH]c4OC)ccc13)CO2 (some centres unmarked) [Compound 1-49] | > 501 nM | 21 to 200 nM |
| CCN(C)CCn1cc(C(=O)[C@@H]2COc3ccc(OC)cc3C2)c2ccc(-c3cn[nH]c3Cl)cc21 [Compound 3-28] | > 501 nM | 21 to 200 nM |
| CNCCn1cc(C(=O)C2COc3ccc(OC)cc3C2)c2ccc(-c3cn[nH]c3Cl)cc21 (centres unmarked) [Compound 3-23] | > 501 nM | < 20 nM |

| Structure (SMILES) | IC50 [1] | IC50 [2] |
| --- | --- | --- |
| COc1[nH]ncc1-c1ccc2c(C(=O)C3COc4ccc(Cl)cc4C3)cn(C[C@@H]3CCCN3C)c2c1 (some centres unmarked) [Compound 1-29] | 201 to 500 nM | 21 to 200 nM |
| CN1CC[C@H]1Cn1nc(C(=O)[C@@H]2COc3ccc(F)cc3C2)c2ccc(-c3c[nH]nc3F)cc21 [Compound 5-57] | 201 to 500 nM | < 20 nM |
| COc1ccc2c(c1)CC(C(=O)c1cn(C[C@H]3CCN3)c3cc(-c4cn[nH]c4F)ccc13)CO2 (some centres unmarked) [Compound 1-38] | 201 to 500 nM | < 20 nM |
| COc1ccc2c(c1)CC(C(=O)c1nn(CCN(C)C)c3cc(-c4c[nH]nc4Cl)ccc13)CO2 (centres unmarked) [Compound 5-50] | 21 to 200 nM | < 20 nM |
| CN(C)CCn1cc(C(=O)C2COc3ccc(F)cc3C2)c2ccc(-c3c[nH]nc3Cl)nc21 (centres unmarked) [Compound 1-10] | > 501 nM | 21 to 200 nM |
| COc1ccc2c(c1)C[C@H](C(=O)c1cn(C[C@H]3CCN3CC(F)F)c3cc(-c4c[nH]nc4Cl)ccc13)CO2 [Compound 5-10] | 201 to 500 nM | < 20 nM |
| C[C@H](Cn1cc(C(=O)[C@@H]2COc3ccc(Cl)cc3C2)c2ccc(-c3cn[nH]c3F)cc21)N(C)C [Compound 2-17] | 201 to 500 nM | < 20 nM |
| O=C(c1cn(C[C@H]2CCN2)c2cc(-c3cn[nH]c3Cl)ccc12)C1COc2ccc(Cl)cc2C1 (some centres unmarked) [Compound 1-39] | > 501 nM | 21 to 200 nM |
| CN(C)CCn1cc(C(=O)C2COc3ccc(F)cc3O2)c2ccc(-c3c[nH]nc3Cl)cc21 (centres unmarked) [Compound 5-16] | > 501 nM | 201 to 500 nM |
| COc1ccc2c(c1)C[C@H](C(=O)c1cn(C[C@H]3CCN3CCF)c3cc(-c4c[nH]nc4Cl)ccc13)CO2 [Compound 5-9] | 201 to 500 nM | < 20 nM |
| O=C(c1cn(CC2CCN2)c2cc(-c3cn[nH]c3F)ccc12)C1COc2ccc(Cl)cc2C1 (centres unmarked) [Compound 1-30] | > 501 nM | < 20 nM |
| COc1[nH]ncc1-c1ccc2c(C(=O)C3COc4ccc(Cl)cc4C3)cn(C3CNC3)c2c1 (centres unmarked) [Compound 1-18] | > 501 nM | 21 to 200 nM |
| COc1ccc2c(c1)CC(C(=O)c1cn(C[C@@H]3CCN3)c3cc(-c4cn[nH]c4Cl)ccc13)CO2 (some centres unmarked) [Compound 1-36] | 201 to 500 nM | < 20 nM |
| COc1[nH]ncc1-c1ccc2c(C(=O)C3COc4ccc(Cl)cc4C3)cn(C[C@@H](C)N(C)C)c2c1 (some centres unmarked) [Compound 2-14] | 201 to 500 nM | < 20 nM |
| NC1(Cn2cc(C(=O)C3COc4ccc(Cl)cc4C3)c3ccc(-c4cn[nH]c4F)cc32)CC1 (centres unmarked) [Compound 4-5] | < 20 nM | < 20 nM |
| CN(C)CCn1nc(C(=O)C2COc3ccc(Cl)cc3C2)c2ccc(-c3c[nH]nc3F)cc21 (centres unmarked) [Compound 5-48] | > 501 nM | < 20 nM |
| C[C@H](N)Cn1cc(C(=O)C2COc3ccc(Cl)cc3C2)c2ccc(-c3c[nH]nc3Cl)cc21 (some centres unmarked) [Compound 2-7] | < 20 nM | < 20 nM |
| COc1n[nH]cc1-c1ccc2c(C(=O)[C@@H]3COc4ccc(Cl)cc4C3)cn(CCCN(C)C)c2c1 [Compound 3-7] | 201 to 500 nM | 21 to 200 nM |
| CN(C)CCn1nc(C(=O)C2COc3ccc(Cl)cc3O2)c2ccc(-c3c[nH]nc3F)cc21 (centres unmarked) [Compound 5-60] | > 501 nM | 21 to 200 nM |
| COc1n[nH]cc1-c1ccc2c(C(=O)C3COc4ccc(Cl)cc4O3)nn(CCN(C)C)c2c1 (centres unmarked) [Compound 5-59] | > 501 nM | 21 to 200 nM |
| CN(C)CCn1cc(C(=O)C2COc3ccc(Cl)cc3C2)c2cnc(-c3cn[nH]c3F)nc21 (centres unmarked) [Compound 1-34] | > 501 nM | 201 to 500 nM |
| CCN(CC)CCn1cc(C(=O)[C@@H]2COc3ccc(OC)cc3C2)c2ccc(-c3cn[nH]c3Cl)cc21 [Compound 3-21] | 201 to 500 nM | 21 to 200 nM |
| CC(N)Cn1cc(C(=O)C2COc3ccc(F)cc3C2)c2cnc(-c3c[nH]nc3Cl)cc21 (centres unmarked) [Compound 2-2] | 21 to 200 nM | < 20 nM |
| COc1[nH]ncc1-c1ccc2c(C(=O)C3COc4ccc(Cl)cc4C3)cn(CC3CNC3)c2c1 (centres unmarked) [Compound 1-22] | < 20 nM | < 20 nM |
| CN(C)CCn1cc(C(=O)[C@@H]2COc3ccc(Cl)cc3C2)c2ccc(-c3cn[nH]c3F)cc21 [Compound 1-26] | 201 to 500 nM | < 20 nM |
| COc1[nH]ncc1-c1ccc2c(C(=O)[C@H]3COc4ccc(F)cc4C3)cn(CCN(C)C)c2c1 [Compound 5-40] | > 501 nM | 201 to 500 nM |
| COc1[nH]ncc1-c1ccc2c(C(=O)[C@@H]3COc4ccc(F)cc4C3)cn(CCN(C)C)c2c1 [Compound 5-39] | > 501 nM |  |
